Experimental findings from patent publication US7622611B2, “Pentafluorosulfanylbenzoylguanidines, process for their preparation, use as a medicament or diagnostic aid, and medicament comprising same” (Sanofi-Aventis Deutschland GmbH, priority 2003, dated 2009) are described below.

Each structure is given as a SMILES string.

The target in one data set is T1, human NHE-1 (Homo sapiens, UniProt P19634).
T1 construct: expressed in transfected cells; host or cells: LAP-1 (parental line without endogenous NHE activity), G418 selection
As to the kind of experiment: NHE-1 inhibition, FLIPR assay measuring pHi recovery in transfected cell lines. Type of data set: cell-based. The settings on record: transfected LAP-1 cell line expressing human NHE-1, BCECF pHi recovery, read-out: NHE1 inhibition IC50. Here is the method:
The inhibitory concentration IC50 for NHE-1 inhibition was determined as follows:
IC50 for NHE-1 inhibition was determined in an FLIPR assay by measurement of the pHi recovery in transfected cell lines which express human NHE-1.
The assay was carried out in an FLIPR (fluorometric imaging plate reader) with black-walled 96-well microtiter plates with clear bases.
The growth medium for the transfected cells (Iscove+10% fetal calf serum) additionally contained G418 as selection antibiotic in order to ensure the presence of the transfected sequences.
The actual assay started with the removal of the growth medium and addition of 100 μl of loading buffer per well (5 μM BCECF-AM [2′,7′-bis(carboxyethyl)-5-(and -6-)carboxyfluorescein, acetoxymethyl ester] in 20 mM NH4Cl, 115 mM choline chloride, 1 mM MgCl2, 1 mM CaCl2, 5 mM KCl, 20 mM HEPES, 5 mM glucose; pH 7.4 [adjusted with KOH]). The cells were then incubated at 37° C. for 20 minutes. This incubation led to loading of the cells with the fluorescent dye whose fluorescence intensity depends on pHi, and with NH4Cl that made the cells slightly alkaline.
The nonfluorescent dye precursor BCECF-AM is, as ester, membrane-permeable. The actual dye BCECF is not membrane-permeable but is liberated inside cells by esterases. […]

Data set [1] is described as follows: In vivo pharmacokinetics, profiling with the "n in one method" in beagle dog. The settings on record: for Volume of distribution: fasting male beagle dog, single i.v. bolus into jugular vein, about 1 mg/kg, both substances given together. Here is the method:
In vivo pharmacokinetics—profiling with the “n in one method”
The exposure data and the volumes of distribution were determined as characteristic pharmacokinetic data as follows:
The NHE-1 inhibitor of example 1 of the invention and, as reference substance, the known NHE-1 inhibitor cariporide with formula
[drawing 23] were dissolved in an aqueous, slightly acidic medium (water, pH 4, adjusted with 1M hydrochloric acid). The concentration of the aqueous formulation prepared in this way was about 1.5 mg of each substance per 1 g of solution. 10 ml of this formulation were administered as a single bolus by catheter into the jugular vein of a fasting male beagle dog (dose about 1 mg of each substance administered per kg of the dog's body weight). Blood samples were taken by means of a second catheter after 5 min, 15 min, 30 min, 1 h, 2 h, 4 h, 8 h and 24 h, and heparinized plasma was prepared by centrifugation at 1000 G in appropriate plasma tubes.
The plasma samples were worked up and, after an HPLC separation, quantified by MS/MS. The high specificity of this method permitted simultaneous determination of a plurality of substances. The exposures could be calculated using the WinNonlin computer program from the concentration-time plots (see FIG. 1) and compared with the exposure of the known NHE-1 reference substance. Since the various substances were measured in the same animal at the same time, the result was an accurate comparison of the compounds, and a ranking of the volumes of distribution was possible.
FIG. 1: concentration-time plots in the blood plasma of dogs after administration of in each case approx. 1 mg/kg of the compound of example 1 and of cariporide.

What is called IC50 is the concentration that inhibits the measured activity by half. Usually melting point stands for the temperature, or range, at which the solid turns liquid.

T1 sequence (P19634 whole entry): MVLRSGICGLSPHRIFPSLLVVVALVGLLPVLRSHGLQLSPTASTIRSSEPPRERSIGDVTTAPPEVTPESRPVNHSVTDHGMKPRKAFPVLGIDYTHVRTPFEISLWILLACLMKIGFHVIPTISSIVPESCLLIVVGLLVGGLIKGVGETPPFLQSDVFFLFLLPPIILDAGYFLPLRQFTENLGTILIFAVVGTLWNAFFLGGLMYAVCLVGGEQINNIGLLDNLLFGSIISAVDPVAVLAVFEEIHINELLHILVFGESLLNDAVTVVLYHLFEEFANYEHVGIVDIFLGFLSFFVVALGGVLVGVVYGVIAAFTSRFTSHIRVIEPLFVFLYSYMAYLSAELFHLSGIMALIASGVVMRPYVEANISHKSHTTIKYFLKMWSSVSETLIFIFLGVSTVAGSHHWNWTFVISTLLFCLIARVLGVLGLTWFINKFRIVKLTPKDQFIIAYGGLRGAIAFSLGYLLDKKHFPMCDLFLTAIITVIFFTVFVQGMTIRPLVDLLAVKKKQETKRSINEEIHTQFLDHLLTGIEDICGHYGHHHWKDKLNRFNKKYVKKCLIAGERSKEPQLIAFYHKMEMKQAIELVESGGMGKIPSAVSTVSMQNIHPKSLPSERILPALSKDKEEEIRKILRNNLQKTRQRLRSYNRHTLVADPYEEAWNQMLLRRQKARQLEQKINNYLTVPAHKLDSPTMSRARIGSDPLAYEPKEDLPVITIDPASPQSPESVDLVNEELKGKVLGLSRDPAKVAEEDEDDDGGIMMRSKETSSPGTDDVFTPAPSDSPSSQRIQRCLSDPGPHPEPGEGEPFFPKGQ

Take `Cc1cc(S(F)(F)(F)(F)F)c(S(C)(=O)=O)cc1C(=O)N=C(N)N` [Example 1, N-(5-Methanesulfonyl-2-methyl-4-pentafluorosulfanylbenzoyl)guanidine]: the melting point was in the range of 254 to 256 °C. The IC50 at human NHE-1 came out at 49 nM. In data set [1] (dog plasma, about 1 mg/kg i.v., from concentration-time plots, FIG. 1), the “Exposure relative to reference substance cariporide (times higher)” value is on record as 2-3 times. The Volume of distribution in data set [1] was 1.67 l/kg of body weight.
`CC(C)c1ccc(C(=O)N=C(N)N)cc1S(C)(=O)=O.CS(=O)(=O)O` [cariporide, reference compound]: the “Detectability in plasma after 24 hours” value in data set [1] (dog plasma, 24 h after about 1 mg/kg i.v.) is “no longer detectable”. For the same compound, the Volume of distribution in data set [1] is 2.94 l/kg of body weight.
